Here are results for four molecules from US20110033525A1, “Diterpene Glycosides as Natural Solubilizers” (priority 2008, published 2011).

For orientation: solubility means how much of the substance goes into solution per volume.

Converted amounts (≈) assume the structure as drawn. Where two headings read alike, the source gives them in different places.

For data set [1], the system named is Enterobacter aerogenes (A216RF). Put plainly: Germicidal and Detergent Sanitizer Test (modified AOAC). Type of data set: cell-based. The note with it: solution pH 6.5, 30 Seconds. As for the experimental part:
(§1) Germicidal and Detergent Sanitizer Test. The following challenge organisms were grown in trypticase soy broth for 24 h at 37° C.: Staphylococcus aureus (Gram-positive) ATCC 29740 (Newbould 305), Streptococcus agalactiae (Gram-positive) ATCC 27956 (McDonald 44), Streptococcus dysgalactiae (Gram-positive) ATCC 27957, Streptococcus uberis (Gram-positive) ATCC 27958, Escherichia coli (Gram-negative) ATCC 25922, Pseudomonas aeruginosa (Gram-negative) ATCC 27853, and clinical mastitis isolates of Enterobacter aerogenes (Gram-negative) (216RF) and Klebsiella pneumoniae (Gram-negative) (A37RR) from the Louisiana State University Hill Farm Research Station dairy herd.
(§2) Bacterial cultures. Aliquots of each 24-h bacterial culture were standardized to a turbidity of a 0.5 McFarland standard, which corresponds to approximately 150×10^6 colony-forming units (cfu) per ml. Aliquots containing 0.02 ml of this culture were added to 1.98 ml aliquots of the curcumin-rubusoside solution. […] This solution was mixed thoroughly, and diluted 1:1000 in saline, and 0.1 ml was plated on duplicate Letheen Agar (Becton Dickinson, Cockeysville, Md.) plates for each microorganism tested. Resultant colonies were counted after incubation of the plates at 37° C. for 24 h.
(§3) First Experiment. The test compound was a solubilized curcumin water solution. […] The solution was kept in the dark.
(§4) Second Experiment. For the second experiment, the bacterial cultures were as described above. […] First, 100 mL of a 5% w/v rubusoside water solution was prepared. […] This solution was then autoclaved at 115° C. and 1 atmosphere pressure for 30 min. The autoclaved solution was held in an incubator at 37° C. for 72 hr, and kept in the dark. The solution was adjusted to pH 7.4 by adding appropriate amount of phosphate buffered saline powder and then filtered through a 0.45 μm Nylon filter and analyzed on HPLC.

Data set [2] relates to Escherichia coli ATCC 25922. The description is as above. Type of data set: cell-based. As for the experimental part: as §1, §2, §3, §4
Data set [3] relates to Klebsiella pneumoniae (A37RR). Described as above. Type of data set: cell-based. The note with it: solution pH 6.5, 30 Seconds. As for the experimental part:
as §1, §2, §3, §4

Data set [4] deals with Pseudomonas aeruginosa ATCC 27853. Described as above. It counts as cell-based. As for the experimental part:
as §1, §2, §3, §4

Data set [5] concerns Staphylococcus aureus ATCC 29740 (Newbould 305). The data set is described as above. It counts as cell-based. As for the experimental part:
as §1, §2, §3, §4

In data set [6] the test system is Streptococcus agalactiae ATCC 27956 (McDonald 44). Described as above. Type of data set: cell-based. As for the experimental part:
as §1, §2, §3, §4

Data set [7] relates to Streptococcus dysgalactiae ATCC 27957. Described as above. It counts as cell-based. As for the experimental part:
as §1, §2, §3, §4

The test system of data set [8] is Streptococcus uberis ATCC 27958. Described as above. Type of data set: cell-based. The note with it: solution pH 6.5, 30 Seconds. As for the experimental part: as §1, §2, §3, §4
The conditions of data set [9]: in vivo; cited from earlier work.
The next data set can be described thus: physchem. The note with it: for solubility: 25 °C, thermodynamic from solid. As for the experimental part:
Solubility test methods: A compound with low solubility was selected and weighed into multiple centrifuge tubes. Each experimental tube received a known amount of the solubilizing agent being tested. The control tubes remained only with the compound. The same volume, 1 mL, unless otherwise indicated, of deionized and distilled water was added to each tube. Alternatively, a set percentage of water solutions containing the solubilizer to be tested (e.g., 5% w/v or 10% w/v) were prepared separately. In these cases, the solubilizer-water solutions were added directly to the tubes containing the low-solubility compound. The tubes were then vortexed briefly and then sonicated for 60 min at temperature of 50° C. unless otherwise indicated. After sonication, the tubes were placed on an orbital shaker at a speed of 80 rpm in an incubator set at 25° C. for at least 24 hr. The tubes were then centrifuged at 4000 rpm for 10 min. The supernatant solution was passed through a 0.2 μm or 0.45 μm filter and analyzed for the concentration of the low-solubility compound, and sometimes the solubilizing compound, by HPLC or UV-Vis spectrophotometer.
The system was computer controlled, and the results were analyzed using Empower software. Calibrations curves were constructed using known concentrations of the compounds and were used to quantify the concentrations of the compounds dissolved in solution. A more complete description of the HPLC procedure for some of the diterpene glycosides is found in G. Chou et al., “Quantitative and fingerprint analyses of Chinese sweet tea plant (Rubus suavissimus S. Lee),” J. Agric. Food Chem., vol.
The ratio of peak areas was used to calculate the increase in water solubility in the absence or presence of solubilizers.

The test system of data set [10] is PANC-1 (human pancreatic) cancer cells. Put plainly: MTT cellular proliferation assay, PANC-1. The note with it: 72 hr. It counts as cell-based. As for the experimental part: (§5) Paclitaxel and camptothecin were purchased from Sigma Chemicals (St. Louis, Mo.). […] The solution was sonicated for 60 min at 69° C. and then placed in a shaking incubator at 25° C. for 48 hr. The solution was then centrifuged at 4,000×g, and the supernatant was filtered with a 0.2 μm nylon filter. […] The sample was labeled as TXL100. To make an aqueous solution of camptothecin, about 5 mg of camptothecin was weighed into a solution containing 70 mg/ml rubusoside. The solution was sonicated for 60 min at 69° C., and then placed in a shaking incubator at 25° C. for 48 hr. The solution was then centrifuged at 4,000×g and the supernatant was filtered with a 0.2 μm nylon filter. This aqueous solution was analyzed by HPLC and contained 10 μg/ml camptothecin in the presence of 70 mg/ml rubusoside. This sample was labeled as CPT70.
(§6) Inhibition of cellular proliferation was assessed by a MTT assay. Each well of the 96-well plate contained 10^4 cells/100 μl cell culture growth medium. The cells were seeded onto the plate and placed in a 37° C. incubator overnight. On the next day, the compound treatment was set up. A series of dilutions using phosphate buffered saline (PBS) containing 10% FBS (fetal bovine serum) with either the test compound or vehicle with cell culture growth medium was made for each well with a final volume of 200 μl. Each treatment had 8 wells in a column. Prior to the addition of the test compound, the existing medium in each of the wells was aspirated completely and carefully to avoid losing cells. A series of dilutions of the aqueous samples were made ranging from 20 μl to 0.078 μl supplemented with culture media to make a final volume of 200 μl for each well. The plate was placed in a 37° C. incubator for 72 hr. On the day of the staining, MTT solution (3 mg Thiazolyl Blue Tetrazolium Bromide/ml PBS was prepared. To each well, 25 μl MTT solution was directly added. The plate was then incubated for 90 to 120 min. Afterwards, the wells were aspirated completely and carefully. Finally, 50 μl DMSO (dimethyl sulfoxide) was added to each well. The plate was read at 650 nm on a microplate reader. Cell proliferations were calculated as % of the control using the vehicle treatment as the control.
(§7) Calculations of IC50 in molar concentrations were as follows. […] Thus, 1 μl/ml of TXL solution in the culture medium equaled 17 ng TXL/ml culture medium, which equaled 19.9 nM based on the molecular weight of 854.
(§8) CPT: The sample concentration of CPT was 10 μg/ml=10 ng/μl, and the molecular weight of camptothecin is 348. Thus, 1 μl/ml of CPT solution in the culture medium equaled 10 ng CPT/ml culture medium, which equaled 28.7 nM based on the molecular weight of 348.
For orientation: Tetrazolium dyes change colour on reduction, which living cells bring about.

Data set [11] deals with PC3 (human prostate) cancer cells. In words: MTT cellular proliferation assay, PC3. It counts as cell-based. The note with it: 72 hr. As for the experimental part:
as §5, §6, §7, §8

In a further data set the test system is PC3 cells. The note with it: existing formulation, Danesi 1995, Rowinsky 1990, read-out: Reported IC50 for PC3 cells, cited from earlier work.
The subject of data set [12] is MDA-M231 breast cancer cells. The note with it: current drug formulation; Nornoo 2008; read-out: Concentration to kill 50% of cells; cited from earlier work.
The test system of data set [13] is A549 (human lung) cancer cells. Put plainly: MTT cellular proliferation assay, A549. Type of data set: cell-based. The note with it: 72 hr. As for the experimental part:
as §5
Inhibition of cellular proliferation was assessed by a MTT assay. […] On the day of the staining, MTT solution (3 mg Thiazolyl Blue Tetrazolium Bromide/ml PBS was prepared. To each well, 25 μl MTT solution was directly added. The plate was then incubated for 90 to 120 min. Afterwards, the wells were aspirated completely and carefully. Finally, 50 μl DMSO (dimethyl sulfoxide) was added to each well. The plate was read at 650 nm on a microplate reader. Cell proliferations were calculated as % of the control using the vehicle treatment as the control. […]

Data set [14] relates to various human cancer cell lines. The note with it: Kaczirek 2004; read-out: Reported IC50 range; cited from earlier work.
The conditions of data set [15]: The Merck Index (1996) or Material Safety Data Sheets; cited from earlier work.
The nature of data set [16]: Stability of solubilizers and solubilized water solutions (heat, pH, light, storage).
The mark [17] stands for this setting: volume of aqueous sample per ml culture medium.
The mark [18] stands for this setting: Homo sapiens, converted from μl/ml, read-out: IC50.

Regarding `COc1cc(/C=C/C(=O)CC(=O)/C=C/c2ccc(O)c(OC)c2)ccc1O` [Curcumin], the Percent reduction entry in data set [1] is listed as “no observed inhibition”; in data set [2] (solution pH 6.5, 10 Minutes) it was 98.54%; in data set [2] (solution pH 6.5, 30 Seconds), “no observed inhibition”; in [3] it was “no observed inhibition”; in data set [4] (solution pH 6.5, 10 Minutes) it was 99.99%; in data set [4] (solution pH 6.5, 30 Seconds) it was 99.99%. The Percent reduction was 26.67% in data set [5] (solution pH 6.5, 10 Minutes); 39.33% in data set [5] (solution pH 6.5, 30 Seconds); 99.7% in data set [6] (solution pH 6.5, 10 Minutes); 91.7% in data set [6] (solution pH 6.5, 30 Seconds); 47.92% in [7] (solution pH 6.5, 10 Minutes); 43.75% in [7] (solution pH 6.5, 30 Seconds). In data set [8], the Percent reduction result is given as “no observed inhibition”.
Regarding `CCCCN(CCCC)CC(O)c1cc(Cl)cc2c1-c1ccc(Cl)cc1/C2=C/c1ccc(Cl)cc1` (stereo not shown) [Lumefantrine], the Half-life in data set [9] is 72 to 140 h.
Take `CC(=O)O[C@H]1C(=O)[C@@]2(C)[C@H]([C@H](OC(=O)c3ccccc3)[C@]3(O)C[C@H](OC(=O)[C@H](O)[C@@H](NC(=O)c4ccccc4)c4ccccc4)C(C)=C1C3(C)C)[C@]1(OC(C)=O)CO[C@@H]1C[C@@H]2O` [Paclitaxel, reference compound]: the “Solubility in water with solubilizer” value in “physchem” was 10 µg/mL. Also, in the data set “physchem”, the Solubility increase factor entry is reported as “up to 877”. In addition, the “Concentration dissolved in rubusoside water solution” value in the data set “physchem” (20 mg rubusoside in 1 ml water) was determined as 350 ng/mL. In addition, the IC50 in data set [10] (setting [17]) was 0.24 μl/ml; in data set [10] (setting [18]), 4.9 nM; in [11] (setting [17]) it was 0.69 μl/ml; in [11] (setting [18]), 13.7 nM; in the data set on PC3 cells (listed as paclitaxel), 31.2 nM; in the data set on PC3 cells, 50 nM. For the same molecule, the IC50 in data set [12] is above 1000 nM.
On to `CC[C@@]1(O)C(=O)OCc2c1cc1n(c2=O)Cc2cc3ccccc3nc2-1` [Camptothecin], for which the “Concentration dissolved in rubusoside water solution” value in the data set “physchem” (70 mg (109 mM) rubusoside) is 144 µM; in “physchem” (70 mg rubusoside (70 mg/ml, 109 mM)), 50000 ng/mL. For the same molecule, the solubility in “physchem” (aqueous with cosolvent or surfactant or cyclodextrin, Solubility in water with solubilizer, natural solubilizer (rubusoside) 20% w/v (200 mg in 1 ml)) amounted to 144 µg/mL (≈ 413 µM); in the data set “physchem” (water, Solubility of CPT, Table 4, rubusoside amount as in the label) it was 0.4 µg/mL (≈ 1.15 µM). Besides, the IC50 in data set [10] (setting [17]) amounted to 1.91 μl/ml; in [10] (setting [18]) it was 54.9 nM; in data set [11] (setting [17]), 1.03 μl/ml; in [11] (setting [18]), 29.6 nM; in [13] (setting [17]), 4.93 μl/ml; in [13] (setting [18]) it was 142 nM. For the same molecule, in [14], the IC50 is 10 to 3500 nM. Further, in [15], the “Water solubility in words” value is recorded as “insoluble”. Further, the “Stability of rubusoside water solution at room temperature” value in data set [16] is listed as “stable at room temperature for at least two weeks”.
